Results on one compound are retold here after US9616062B2, “Cyclin dependent kinase inhibitors and methods of use” (priority 2009, dated 2017).

Each structure is given as a SMILES string.

Series [1] relates to primary human renal proximal tubule epithelial cells. In words: Cell cycle analysis (propidium iodide, flow cytometry). It counts as cell-based. To be noted: 16 hours. The method, then: Representative histograms of cell cycle analysis of Primary human renal proximal tubule epithelial cells treated with varying concentrations of PD0332991 for 16 hours. Cells were harvested, fixed, stained, and analyzed by flow cytometry. Data was fitted using Mod-Fit™ software from Verity (Verity Software House, Topsham, Me., United States of America).
Cell cycle analysis of Primary human renal proximal tubule epithelial cells treated with varying concentrations of PD0332991 for 16 hours. Cells were harvested, fixed, stained, and analyzed by flow cytometry. Data was fitted using Mod-Fit™ software from Verity (Verity Software House, Topsham, Me., United States of America). Corresponding % of cells in G1 (diamonds), G2/M (squares) and S (triangles) are shown on the graph.
Primary normal human renal proximal epithelial cells (American Type Culture Collection (ATCC), Manassas, Va., United States of America) were cultured in renal epithelial cell basal media supplemented with renal epithelial cell growth kit according to the manufacturer's recommendations. […] For the γH2AX assay, cells were fixed, permeabilized, and stained with anti-γH2AX as per γH2AX Flow Kit (Millipore, Billerica, Mass., United States of America). γH2AX levels were assessed by flow cytometry. Cell proliferation was assessed by seeding 1×10^3 cells per well in a 96-well tissue culture plate in 100 μL of growth medium. […]
In general terms: Flow cytometry measures light scatter and fluorescence of single cells or particles in a stream.

The subject of series [2] is H417 small cell lung cancer cell line (intact RB). As to the kind of experiment: SCLC cell proliferation, WST-1, RB-intact line. The format is cell-based. To be noted: 100 nM. How it is done: FIG. 8: CDK4/6 inhibition potentiates proliferation of Rb deficient cells. […] Cell proliferation was assessed using WST-1 reagent. Each data point represents the mean of four replicates +/−SEM. CDK4/6 inhibition increases cell proliferation of RB-deficient cell lines.
Primary normal human renal proximal epithelial cells (American Type Culture Collection (ATCC), Manassas, Va., United States of America) were cultured in renal epithelial cell basal media supplemented with renal epithelial cell growth kit according to the manufacturer's recommendations. […] For the γH2AX assay, cells were fixed, permeabilized, and stained with anti-γH2AX as per γH2AX Flow Kit (Millipore, Billerica, Mass., United States of America). γH2AX levels were assessed by flow cytometry. Cell proliferation was assessed by seeding 1×10^3 cells per well in a 96-well tissue culture plate in 100 μL of growth medium. […] At the end of the recovery period, cell number was quantified using CellTiter-Glo® (Promega, Fitchburg, Wis., United States of America) or WST-1 reagent (TaKaRa Bio USA, Madison, Wis., United States of America). Cellular cytotoxicity was assessed using the TOXILIGHT™ Bioassay kit (Lonza, Basel, Switzerland) which measures cytolysis by quantifying the release of Adenylate Kinase into the culture media. […] 100 μL of TOXILIGHT™ reagent is added and incubated for 5 minutes and read in a luminometer at 1 second/well. […]
On the technique in general: Tetrazolium dyes change colour on reduction, which living cells bring about.

Series [3] concerns C3-TAg mice (RB-deficient breast cancer). As to the kind of experiment: C3-Tag transgenic mouse model of basal-like breast cancer, tumor volume. It counts as in vivo. To be noted: daily administration, 100 mg/kg daily in standard chow. How it is done:
FIG. 9: CDK4/6 inhibition potentiates the efficacy of chemotherapy in mouse model of RB-deficient breast cancer. […] Data are % change in tumor volume and represents the mean of at least 15 animals per cohort +/−SEM
FIG. 10: CDK4/6 inhibition potentiates the efficacy of chemotherapy in mouse model of RB-deficient breast cancer. Mice were treated every 7 days for three weeks with carboplatin (90 mg/kg IP) alone (darkly shaded squares) or in combination with PD0332991 (150 mg/kg PO; lightly shaded squares). Data are % change in tumor volume and represents the mean of at least 15 animals per cohort +/−SEM.
The C3-TAg mice are a model of basal-like breast cancer. […] The MMTV-c-neu model expresses c-neu (the mouse ortholog of human HER2) driven by the mouse mammary tumor virus (MMTV) promoter and is a model of HER2+ breast cancer. When tumors were noted to be ˜0.2 cm^2 in size, animals were treated as described and tumor response assessed by daily caliper measurements.
The effects of CDK4/6 inhibition in the C3-Tag transgenic mouse model of basal-like breast cancer were also evaluated. […] Tumor volume was measured by caliper weekly. Tumor volume was calculated using the following formula: Volume=[(width)^2×length]/2. […] Treatments were administered on days 0, 7 and 14 and tumor volumes were measured weekly, until the mice died or were euthanized due to toxicity or tumor burden.

The subject of series [4] is murine memory and naive T cells. As to the kind of experiment: Homeostatic T cell proliferation in mice (BrdU incorporation, Ki67). The format is in vivo, mouse. The method, then:
FIG. 11A: Acute inhibition of CDK4/6 selectively suppresses memory T cell homeostatic proliferation in mice. Mice were treated with PD0332991 (150 mg/kg by oral gavage). Proliferation of T-cells were assessed using BrdU and flow cytometry.
Animals were treated with CDK4/6 inhibitor (PD0332991, open bars) or vehicle (shaded bars) for 24 hours and euthanized. Splenocytes were isolated and stained for B and T cell markers. After gating on appropriate populations, Ki67 staining was performed as an indicator of proliferation and S-phase. Error bars show +/−SEM.
Acute, pharmacologic inhibition of CDK4/6 suppresses lymphocyte proliferation with the most pronounced effect on memory T cell homeostatic proliferation and germinal center formation in mice. To determine whether inhibiting CDK4/6 affects memory cell generation and maintenance, mice were treated with selective CDK4/6 inhibitors, PD 0332991 or an unrelated selective CDK4/6 inhibitor, 2BrIC. 2BrIC was synthesized by OTAVA Chemicals (Kiev, Ukraine) and can be prepared according to methods described in Zhu et al., J. Med. Chem. 46, 2027-2030 (2003).

For the compound `CC(=O)c1c(C)c2cnc(Nc3ccc(N4CCNCC4)cn3)nc2n(C2CCCC2)c1=O` [PD0332991, 6-acetyl-8-cyclopentyl-5-methyl-2-(5-piperazin-1-yl-pyridin-2-ylamino)-8H-pyrido-[2,3-d]-pyrimidin-7-one], the “cell cycle arrest (G0/G1, G2/M, S fractions)” value in series [1] (0, 10 nM-1 uM) is recorded as “induces a G1 arrest”. Also, the “cytotoxicity during G1 arrest” value in series [1] (varying concentrations) was “without evidence of cytotoxicity”. In series [2], the “cell proliferation (WST-1) vs DMSO” value is “decreased”. Besides, the “tumor growth at day 21” value in series [3] is “no effect on tumor growth”. Also, the “in vivo BrdU incorporation of CD4+ and CD8+ murine T cells” value in series [4] (150 mg/kg by oral gavage) is given as “greatest effects seen in the CD44+CD25+ memory cells”. Further, the “homeostatic proliferation of memory vs naive T cells (BrdU incorporation, Ki67 expression)” value in series [4] (murine cells, acute inhibition) is reported as “more significant decrease in homeostatic proliferation of memory T cells than naive T cells”.
